{
  "source": "patent US10781203B2",
  "about": "“Nontoxic compounds for the treatment and prevention of herpesvirus infections” (The Penn State Research Foundation, priority 2016, dated 2020)",
  "key": {"cells": {"tested_on": "cells", "experiment": "Cell viability after extended treatment (trypan blue, bright field)", "format": "cell-based", "from_the_text": "FIG. 3A is a growth curve analysis of HCMV (MOI=3) in untreated (WT), vehicle treated (DMSO) or Retro94-treated cells. Samples were harvested at 24, 48, 72, 96, 120 and 144 hpi. […] Nuclei labeled with DAPI (blue). Scale bars: 10 μm. FIG. 3C is a growth curve analysis of HCMV (MOI=0.05) in DMSO control (DMSO) or Retro94-treated cells. Samples were harvested at 3, 6, 9, 12 and 15 dpi. Asterisks indicate change of media with fresh Retro94. […] Bright field images of cell monolayers at 4 days post treatment are shown below graph. Brefeldin A was included as a positive control for cell death. Values in FIGS. 3A and 3C are from one representative experiment.\nNormal human dermal fibroblasts, HDFs (Cell Applications Inc. 106-05N), and normal human lung fibroblasts, MRC-5 cells (ATCC CCL-171) were maintained in Dulbecco's modified Eagle's medium (DMEM) (Lonza). Human retinal pigmented epithelial cells (ARPE-19), maintained in DMEM/Ham's F12 (1:1 mix) (Lonza), human embryonic lung fibroblasts (HEL) and mouse embryonic fibroblasts (NIH 3T3), maintained in DMEM (Lonza) were obtained (Spector D J, Yetming K. Virology. 2010; 407(2):171-7; Spector D J. Virology. 2015, 476:345-54). All media was supplemented with 10% fetal bovine serum, 100 U/ml penicillin and 100 µg/ml streptomycin, and 2 mM GlutaMAX (Gibco). Cells were maintained at 37° C. with 5% CO2. […]"}, "HCMV-infected cells": {"tested_on": "HCMV-infected cells", "experiment": "Western blot analysis of HCMV-infected cell lysates", "format": "cell-based, human", "conditions": "MOI=3, 10 μM", "description": "Total cell lysates were prepared from uninfected or HCMV-infected cells (MOI=3) at the indicated time points by harvesting lystates in radioimmunoprecipitation assay buffer (1% NP-40, 1% sodium deoxycholate, 0.1% sodium dodecyl sulfate [SDS], 0.15 M NaCl, 10 mM sodium phosphate [pH 7.2], 2 mM EDTA, 50 mM NaF, 1 mM phenylmethylsulfonyl fluoride, […], 0.2 mM Na3VO4, 1 μg/ml leupeptin). After centrifugation, the supernatant was collected and stored at −80° C. The protein was quantified by a Bradford assay (Bio-Rad) and samples were analyzed by SDS-PAGE gel electrophoresis and immunoblotting on nitrocellulose or PVDF membrane blocked with 5% milk or 5% BSA in tris-buffered saline (0.1% tween). Antibody dilutions were in accordance with manufacturer's instructions."}, "[1]": {"tested_on": "cytoplasmic viral assembly compartment (cVAC)", "experiment": "cVAC morphology / localization of viral and cellular markers by fluorescence microscopy", "format": "cell-based, human", "description": "Coverslips or chamber slides containing either uninfected or HCMV-infected cells were washed in phosphate-buffered saline (PBS) and fixed in 2% paraformaldehyde for 15 min at room temperature. Cells were blocked in PBS containing 10% human serum, 0.5% Tween-20, and 5% glycine. 0.1% Triton-X 100 was added for permeabilization. Primary and secondary antibodies as specified in the antibody section were diluted in blocking buffer. Nuclei were stained with DAPI prior to mounting with ProLong Diamond Antifade Mountant (ThermoScientific). For live-cell experiments using the pp28-mCherry virus, cells were grown on glass bottom microwell dishes (MatTek Corporation) and nuclei were stained with NucBlue Live Cell Stain ReadyProbes reagent (ThermoScientific). All images were acquired using a C2+ Confocal Microscope System (Nikon). Images were processed using NIS elements software. Images shown are volume renderings of Z-stacks."}, "[2]": {"tested_on": "cytoplasmic viral assembly compartment (cVAC)", "experiment": "Electron microscopy of HCMV-infected cells", "format": "cell-based, human", "conditions": "MOI=3; 96 hpi; treated at 2 hpi", "description": "Cells were seeded on 60 mm Permanox tissue culture dishes (Nalge Nunc International). Infections were done at an MOI of 3 for 96 hours. Cells were first washed with PBS 3× followed by fixation for 1 hour at 4° C. in fixation buffer (0.5% [vol/vol] glutaraldehyde, 0.04% [wt/vol] paraformaldehyde, 0.1 M sodium cacodylate). Cells were then processed for EM by the Microscopy Imaging Facility (Pennsylvania State University College of Medicine). Briefly, the fixed samples were washed three times with 0.1 M sodium cacodylate, followed by postfixation in 1% osmium −1.5% potassium ferrocyanide overnight at 4° C. Samples were then washed 3 times in 0.1 M sodium cacodylate, dehydrated with ethanol, and embedded in Epon 812 for staining and sectioning. Images were acquired using a JEOL JEM-1400 Digital Capture transmission electron microscope."}, "HSV-1": {"tested_on": "HSV-1", "experiment": "Virus titer analysis of HSV", "format": "cell-based", "conditions": "MOI=3; harvested at 24 hpi", "from_the_text": "FIGS. 10A-10B show data to provide support for Retro94 and derivatives being effective against other herpesviruses. […] Samples were harvested at 24 hpi. Representative data shown are from independent replicates. FIG. 10B provides a table showing low nanomolar EC50 values of Retro94F against other herpesviruses."}},
  "data": [
    {"compound": "Cc1nc(-c2ccc(C3N(C)c4ccccc4C(=O)N3c3ccccc3)s2)cs1", "note": "(stereo not drawn) [Retro94, 1-Methyl-2-(5-(2-methylthiazol-4-yl)thiophen-2-yl)-3phenyl-2,3-dihydroquinazolin-4(1H)-one]", "values": [
      {"measurement": "effect on cell viability or cell morphology", "setting": "cells", "result": "no effect"},
      {"measurement": "STX5 protein level during infection", "setting": "HCMV-infected cells", "result": "did not reach the same level as observed in control-treated samples"},
      {"measurement": "steady state levels of immediate-early and late viral proteins", "setting": "HCMV-infected cells; 24-96 hpi", "result": "not affected"},
      {"measurement": "localization of viral proteins pp28, pp150 and glycoprotein B", "setting": "[1]; 96 hpi, 10 μM", "result": "dispersed throughout the cytoplasm and were no longer present in the cVAC"},
      {"measurement": "localization of GS27 and GS28", "setting": "[1]; MOI=3, 96 hpi", "result": "mostly remained in a perinuclear localization"},
      {"measurement": "localization of markers of Golgi (GM130), TGN (p230) and endosomes (EEA1)", "setting": "[1]; MOI=3, 96 hpi", "result": "retained their perinuclear localization"},
      {"measurement": "normal cVAC morphology", "setting": "[1]; MOI=3, 96 hpi", "result": "did not form"},
      {"measurement": "cVAC as detected by pp28-mCherry", "setting": "[1]; added at 2 or 24 hpi, imaged at 96 hpi", "result": "no area representing a cVAC was detected"},
      {"measurement": "pp28 localization (pp28-mCherry)", "setting": "[1]; added at 48 hpi, imaged at 96 hpi", "result": "largely dispersed throughout the cell"},
      {"measurement": "perinuclear pp28 regions reminiscent of the cVAC", "setting": "[1]; added at 72 hpi, imaged at 96 hpi", "result": "more prominent"},
      {"measurement": "capsids in perinuclear region (EM)", "setting": "[2]", "result": "largely devoid of capsids at all stages of maturation"},
      {"measurement": "decrease of levels of HSV-1", "setting": "HSV-1", "result": "~90", "unit": "%"}
    ]}
  ]
}
